These results are taken from patent US4287206A, “Halogen derivatives of 8-hydroxycarboxylic acids; the processes for their preparation and medicaments in which they are present” (priority 1978, dated 1981).

Holding throughout (assay type): in vivo
For experiment [1], the system named is rats. Description: Study of the stereotypies in rats. Particulars: comparison of isomers, 32 mg/kg administered orally, schematic grades, 32 mg/kg. The procedure:
Study of the stereotypies in rats
(§1) The tests were carried out on batches of 6 rats for each dose; immediately after the oral or intraperitoneal administration, the animals are placed in individual, transparent plastic 20×10×10 cm boxes provided with a pierced stainless steel lid. The stereotyped movements are rated from 0 to 3, in accordance with the method described by Simon and Chermat (J. Pharmacol. (Paris), 1972, 3, 235-238) every 10 minutes until they disappear in all the animals. The detailed curves are plotted and the surface area of the curve is calculated as described in the above reference.

The test system of experiment [2] is rats. Description: Influence of alpha-methyltyrosine on the stereotypies caused in rats. The procedure: as §1
(b) Influence of alpha-methyltyrosine
At time 0, the animals receive, by intraperitoneal administration, either distilled water or alphamethyltyrosine at a dose of 64 mg.kg^-1; after 150 minutes, they receive, by intraperitoneal administration, the medicament according to the invention, obtained in accordance with Example III, at a dose of 8 mg.kg^-1.
The animals are observed under the conditions described above in the study of the stereotypies in rats.

The subject of experiment [3] is mice. Description: Anti-reserpine activity in mice (reserpine hypothermia). Particulars: comparison of isomers; 32 mg/kg administered orally; schematic grades; listed as α diastereoisomer, 32 mg/kg. The procedure: Anti-reserpine activity in mice
At time 0, the mice receive reserpine (2.5 mg.kg^-1) by intraperitoneal administration.
After 4 hours, when the hypothermia is significant (30 to 31°C.), the substance to be studied is administered intraperitoneally or orally. The rectal temperature is measured, using a probe, carrying a thermoelectric couple, inserted to a constant depth, every 30 minutes for 2 hours.

Experiment [4] relates to mice. Description: Motor activity in mice (activity meters with photoelectric cells). Particulars: comparison of isomers; 32 mg/kg administered orally; schematic grades; listed as α diastereoisomer, 32 mg/kg. The procedure:
The motor activity was determined with the aid of activity meters having photoelectric cells (Boissier and Simon, Arch. int. Pharmacodyn. 1965, 158, 212-221). A minimum of 10 animals was always used per batch.
The mice are placed in the activity meter just after the oral or intraperitoneal administration of the product acccording to the invention, obtained in accordance with Example I. The motor activity is measured as from the introduction into the activity meter up to the 60th minute. The counters are read after 30 minutes, then reset to 0 and read every 10 minutes for 30 minutes.

The test system of experiment [5] is rats. Description: Influence of pimozide on the stereotypies caused in rats. The conditions noted are these: 8 mg.kg^-1 intraperitoneal. The procedure: as §1
Research into the antagonistic effects of the stereotypies caused in rats by the medicament according to the invention
(a) Influence of pimozide
At time 0, pimozide (1 mg.kg^-1) or distilled water is administered intraperitoneally; after 30 minutes, all the animals receive, by intraperitoneal administration, the medicament according to the invention, obtained in accordance with Example III (8 mg.kg^-1). The stereotypies are assessed as described above. The surface area of the curve of the stereotypies is calculated.

The subject of experiment [6] is mice. Description: Anti-apomorphine activity in mice (hypothermia caused by apomorphine). Particulars: comparison of isomers; 32 mg/kg administered orally; schematic grades; listed as α diastereoisomer, 32 mg/kg.

For the compound `CC1CC(c2ccc(Cl)cc2)C(c2ccccc2)C(=O)O1` (stereo not drawn) [Example III, Trans-4-(4'-chlorophenyl)-6-methyl-3-phenyl-3,4,5,6-tetrahydropyrone-2, IIIα], the results for the “Stereotypy-forming action on rats” value in experiment [1] (listed as 100% of α) and in experiment [1] (listed as α diastereoisomer) were 0 and “virtually disappears”, respectively. Further, the “surface area of the curve of the stereotypies, medicament by itself” value in experiment [2] (8 mg.kg^-1 intraperitoneal) and in experiment [5] was 63 in each case. Further, the “surface area of the curve of the stereotypies, medicament + alpha-methyltyrosine” value in experiment [2] (8 mg.kg^-1 intraperitoneal, 150 min after alpha-methyltyrosine 64 mg.kg^-1 intraperitoneal) is recorded as 60.8. For the same compound, in experiment [3], the Anti-reserpine action result is recorded as “less significant”. For the same compound, the “Increase in the motor activity in mice” value in experiment [4] is recorded as “less significant”. The “surface area of the curve of the stereotypies, medicament administered after pimozide” value in experiment [5] (30 min after pimozide 1 mg.kg^-1 intraperitoneal) was 17. For the same compound, in experiment [6], the Anti-apomorphine action result is on record as “persists”.
`C[C@](N)(Cc1ccc(O)cc1)C(=O)O` [alpha-methyltyrosine, reference compound]: the “effect of pre-treatment with alpha-methyltyrosine on the stereotypies caused by the medicament” value in experiment [2] (alpha-methyltyrosine 64 mg.kg^-1 i.p. 150 min before Example III 8 mg.kg^-1 i.p.) was “virtually unmodified”.
